Test results: PubChem BioAssay (NCI)
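Interpolation was linear, between the two tested concentrations surrounding the appropriate level; five concentrations were tested over 48 hours in 96-well plates. The concentration for full growth arrest is given as TGI.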

Legend:
Test in all cases: NCI tumour cell line growth inhibition, 48 h
SF-268 CNS = test system: SF-268 CNS
CCRF-CEM leukemia = test system: CCRF-CEM leukemia
COLO 205 colon = test system: COLO 205 colon
CAKI-1 renal = test system: CAKI-1 renal
SNB-75 CNS = test system: SNB-75 CNS
LOX IMVI melanoma = test system: LOX IMVI melanoma
HCC-2998 colon = test system: HCC-2998 colon
MOLT-4 leukemia = test system: MOLT-4 leukemia
RPMI-8226 leukemia = test system: RPMI-8226 leukemia
HOP-92 NSCLC = test system: HOP-92 NSCLC

| Compound | TGI (SF-268 CNS) [µM] | TGI (CCRF-CEM leukemia) [µM] | TGI (COLO 205 colon) [µM] | TGI (CAKI-1 renal) [µM] | TGI (SNB-75 CNS) [µM] | TGI (LOX IMVI melanoma) [µM] | TGI (HCC-2998 colon) [µM] | TGI (MOLT-4 leukemia) [µM] | TGI (RPMI-8226 leukemia) [µM] | TGI (HOP-92 NSCLC) [µM] |
| --- | --- | --- | --- | --- | --- | --- | --- | --- | --- | --- |
| Oc1ccc(-c2nc(-c3cccnc3)c(-c3ccc(Cl)cc3)[nH]2)cc1 | 29.6 | 17.9 | 23.9 | 43.3 | 19.9 | 24 | 33.1 | 18.1 | 30 | – |
| COc1cccc(-c2ccc3c4c2O[C@H]2C(=O)CC[C@@]5(O)[C@@H](C3)N(CC3CC3)CC[C@]425)c1 | 40.3 | 27.9 | 26.7 | 31 | – | 30.9 | – | 24.7 | 30.9 | 38.4 |
| NC(N)=NCCC[C@H](N)C(=O)NCC(=O)N[C@@H](CC(=O)O)c1ncc(NC(=O)C(F)(F)F)o1 | > 25 | > 25 | > 25 | – | > 25 | > 25 | > 25 | > 25 | – | – |
| CC(C)=CCC/C(C)=C/C=C/C(C)=C/C=C/C(C)=C/C=C/C=C(C)/C=C/C=C(C)/C=C/[C@H]1C(C(C)(C)O)CC[C@]1(C)O (some centres undefined) | 42.4 | 34 | – | > 100 | – | 68.3 | 30 | 54.9 | 54.5 | 28.3 |
| COc1cc(/C=C2\C(=O)N(c3ccccc3)C(c3ccccc3)S2(=O)=O)cc(OC)c1OC (centres undefined) | > 100 | 56.8 | > 100 | > 100 | – | > 100 | > 100 | > 100 | 92.3 | > 100 |
| CCOC(=O)c1cc(C(O)P2(=O)N(CC(C)(C)C)[C@@H]3CCCC[C@H]3N2CC(C)(C)C)cn1C(=O)OC(C)(C)C (some centres undefined) | 38.4 | – | 31.4 | 51 | – | 31.4 | 29.7 | 34 | 29.8 | – |
| N#CC(NC12CC3CC(CC(C3)C1)C2)c1ccccc1C(F)(F)F (centres undefined) | > 100 | > 100 | > 100 | > 100 | – | > 100 | > 100 | > 100 | > 100 | – |
| O=P(Nc1ccc(Cl)cc1)(Oc1ccccc1)N(CCCl)CCCl (centres undefined) | > 100 | > 100 | > 100 | > 100 | > 100 | – | > 100 | > 100 | – | > 100 |
| COc1ccc(C(=C(Cl)c2ccccc2)c2ccc(OC)cc2)cc1 | > 100 | > 100 | > 100 | > 100 | – | > 100 | – | > 100 | > 100 | > 100 |
| Cc1ccc([N+](=O)[O-])cc1S(=O)(=O)Nc1ccc(C2=NNC(c3ccccc3)C2)cc1 (centres undefined) | > 100 | – | 41.4 | 53.6 | > 100 | – | 44.9 | 39.8 | > 100 | > 100 |
| CC1=NNC(N)=N/C1=C\C(Sc1ccc(Cl)cc1)c1ccc([N+](=O)[O-])cc1 (centres undefined) | > 100 | > 100 | > 100 | > 100 | – | > 100 | > 100 | > 100 | > 100 | > 100 |
| COc1cc(/C=C2/C[C@H]3[C@@H]4CC=C5C[C@@H](O)CC[C@]5(C)[C@H]4CC[C@]3(C)NC2=O)cc(OC)c1OC | 23.4 | > 100 | > 57.9 | > 59.9 | – | > 100 | 25.8 | > 100 | > 44.4 | 25 |
| COCN(CCC1=CCCCC1)C(=O)OC | > 100 | – | > 100 | > 100 | > 100 | – | > 100 | > 100 | > 100 | > 100 |
| Cc1c(S(=O)(=O)/N=C(\NO)Nc2ccc(Cl)c(Cl)c2)sc2ccc(Cl)cc12 | 58.8 | > 100 | 35.7 | 38.2 | – | 43.3 | 44.6 | > 100 | > 100 | 43.8 |
| COC(CNC(=O)C(C)NC(=O)CCc1ccccc1)OC (centres undefined) | > 100 | > 100 | > 100 | > 100 | > 100 | – | – | > 100 | > 100 | > 100 |
| OCC(O)COCn1nncc1Cn1ncc2c(SCc3ccccc3)ncnc21 (centres undefined) | 41.1 | > 100 | > 100 | > 100 | – | > 100 | > 100 | – | – | – |
| O=C1CC(=Nc2ccc(Cl)cc2)C(c2ccccc2)N1c1ccccc1 (centres undefined) | > 100 | – | 16.4 | 5.71 | – | 61.5 | > 100 | > 100 | 13.1 | 54.6 |

| Compound | TGI (SF-268 CNS) [µM] | TGI (CCRF-CEM leukemia) [µM] | TGI (COLO 205 colon) [µM] | TGI (CAKI-1 renal) [µM] | TGI (SNB-75 CNS) [µM] | TGI (LOX IMVI melanoma) [µM] | TGI (HCC-2998 colon) [µM] | TGI (MOLT-4 leukemia) [µM] | TGI (RPMI-8226 leukemia) [µM] | TGI (HOP-92 NSCLC) [µM] |
| --- | --- | --- | --- | --- | --- | --- | --- | --- | --- | --- |
| CCOCc1nc2c(OC)cc(-c3nc4ccc(N5CCN(C)CC5)cc4[nH]3)c(OC)c2[nH]1 | > 100 | 34 | 38 | 81.9 | 87.1 | 42.3 | – | 76.6 | > 100 | > 100 |
| O=Cc1ccc2c(c1)CC1(Cc3ccccc3C1)C2 | – | 25.5 | 54.2 | – | – | 37.9 | > 100 | 42.9 | 53.4 | 32.9 |
| O=S(=O)(N=S(c1ccccc1)c1ccccc1)c1ccccc1 | > 100 | > 100 | > 100 | – | – | – | – | > 100 | > 100 | > 100 |
| Cn1cc(NC(=O)c2cc(NC(=O)CN=C(N)N)cn2C)cc1C(=O)NCCC(=N)N | > 100 | > 100 | > 100 | > 100 | – | > 100 | > 100 | > 100 | > 100 | > 100 |
| O=C1C=C(C2=CC(=O)C(=O)c3ccccc32)c2ccccc2C1=O | 48.3 | > 100 | 38.9 | 47.8 | 60.1 | > 100 | – | 15.4 | 46.2 | 39.3 |
| COc1cc(Cn2c3c(c4cc(O)ccc42)Cc2ccccc2C3=O)cc(OC)c1 | > 100 | 86 | > 100 | > 100 | 58.5 | > 100 | – | > 100 | 26.5 | – |
| NN/C(=N\S(=O)(=O)c1cc2ccccc2s1)Nc1ccc(Cl)cc1 | 37.9 | – | 33 | 39.4 | 38.7 | 38.6 | – | 68 | 35.6 | 39.6 |
| CN1CCC(O)(C(C)(C)C)CC1 | > 100 | > 100 | > 100 | > 100 | > 100 | > 100 | > 100 | > 100 | > 100 | – |
| O=C1/C(=C/c2ccc([N+](=O)[O-])cc2)C(=O)N(c2ccccc2)C1c1ccccc1 (centres undefined) | > 10 | > 10 | > 10 | > 10 | > 10 | > 10 | > 10 | > 10 | > 10 | – |
| Cc1cccc(N=NC(=O)NNc2cccc(C)c2C)c1C | > 100 | – | – | > 100 | > 100 | 60.2 | 31.7 | – | 74.8 | – |
| COC1=C(OC)C(=O)C(Cc2c(C)nc3sc(C)cn23)=C(C)C1=O | 35.7 | 53.7 | 36 | 37.4 | – | 39.4 | 92.9 | 4.23 | 39.2 | – |
| CCOC(=O)CNc1c(OCc2ccccc2)c(=O)c1=O | > 100 | > 100 | > 100 | – | > 100 | – | > 100 | > 100 | > 100 | – |
| O=Cc1ccc(OCc2cccc(COc3ccc(/C=N\Nc4ccc([N+](=O)[O-])cc4[N+](=O)[O-])cc3)n2)cc1 | > 100 | > 100 | > 100 | > 100 | – | > 100 | > 100 | 80.2 | > 100 | – |
| COC[C@@H](C[C@H]1O[C@@](O)([C@H](O)[C@@H]2C[C@H](OC)[C@@H](O)CC/C=C(C)/C=C/[C@@H](O[C@@H]3O[C@@H](C)[C@H](OC)[C@@H](O)[C@@H]3O)[C@H](C)/C=C(C)/C=C(C)/C=C(\C)C(=O)O2)[C@H](C)[C@@H](O)[C@H]1C)O[C@H]1C[C@](C)(O)[C@@H](O[C@H]2C[C@@H](OC)[C@H](O)[C@@H](C)O2)C(C)O1 (some centres undefined) | > 100 | – | > 100 | > 100 | – | > 100 | > 100 | > 64.3 | > 100 | > 100 |
| O=C1CSC(c2cccc(Oc3ccccc3)c2)N1c1ccc(Cl)cc1 (centres undefined) | > 100 | > 100 | 35.5 | > 100 | 95.8 | 50.9 | – | 56.1 | – | 65.7 |
| NC(N)=N/N=C/c1c[nH]c2ccccc12 | > 100 | > 100 | > 100 | > 100 | > 100 | > 100 | > 100 | > 100 | > 100 | – |
| CC12C(=O)CC(CC1=O)C2(C)C | > 100 | > 100 | > 100 | > 100 | > 100 | > 100 | – | > 100 | > 100 | > 100 |
